# Measurements taken from PubChem BioAssay (NCI).
#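 Grown in 96-well plates, cells were treated for 48 hours with each compound at five concentrations. Insufficient inhibition: endpoint recorded as highest concentration tested. GI50: concentration for 50% inhibition of growth. TGI: concentration producing complete growth inhibition.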
# Experiments:
# Experiment in all cases: inhibition of tumour cell growth, NCI panel, 48 h
# [1] = test system: OVCAR-3 ovarian
# [2] = test system: RXF 393 renal
# [3] = test system: SK-OV-3 ovarian
# [4] = test system: NCI-H226 lung
# [5] = test system: SR leukemia
# [6] = test system: HCC-2998 colon
# [7] = test system: HOP-62 NSCLC
# [8] = test system: ACHN renal
# [9] = test system: A498 renal
# [10] = test system: HOP-92 NSCLC
SMILES,TGI [1] [µM],TGI [2] [µM],TGI [3] [µM],TGI [4] [µM],TGI [5] [µM],TGI [6] [µM],TGI [7] [µM],TGI [8] [µM],TGI [9] [µM],GI50 [1] [µM],TGI [10] [µM]
Cc1nc2c(n1CCC(C)C)C(=O)c1ccccc1C2=O,71.4,79.7,> 100,> 100,37.6,> 100,50.7,> 100,,,
Fc1ccc(NCn2nc(COc3ccccc3Cl)n(/N=C/c3ccc(-c4ccc(Cl)cc4Cl)o3)c2=S)cc1Cl,> 100,56.6,> 100,> 100,36.8,,> 100,> 100,41.6,,
CC(=O)[O-].[Ni].c1ccc(/C(=N\Nc2ccccn2)c2ccccn2)cc1,19.5,30,43.2,47.6,,19.8,30.1,53,36.3,0.0385,22.3
COc1cc(C2c3[nH]c4ccc(F)cc4c3C[C@H]3COC(=O)N23)cc(OC)c1O (some centres undefined),56,19.1,57.2,32.3,,28.4,21.6,26.4,25.6,,> 100
c1nc(SSc2ncnc3nc[nH]c23)c2[nH]cnc2n1,> 33.6,> 100,> 100,> 100,> 41.6,,> 100,> 100,> 100,,> 100
O=C1C=CC[C@H](/C=C/C[C@@H](O)C[C@H](O)/C=C/c2ccccc2)O1,23.7,22.1,28.3,28.7,,18.6,30.9,27.8,27,,13.7
CNC(=O)c1n[nH]n(Cc2ccccc2)c1=S,> 100,> 100,> 100,> 100,,> 100,> 100,> 100,,,
N#CC(C#N)=Cc1ccc(C=C2SC3=C(SCCS3)S2)s1,> 100,,> 100,9.73,,> 100,> 100,> 100,42.7,,> 100
COc1ccccc1-c1nc2ccccc2c(=O)[nH]1,> 100,> 100,> 100,> 100,> 100,> 100,> 100,> 100,> 100,,
Clc1ccc2c(c1)CC1C[N+]3=C(CCCC3)C1=C2 (centres undefined),> 100,> 100,> 100,> 100,,,> 100,> 100,> 100,,> 100
O=C(O)c1cncc(C(=O)O)c1,> 100,> 100,> 100,> 100,,,> 100,> 100,> 100,,
COC(=O)c1cc(-c2ccc(-c3ccc(O)cc3)cc2)cc(-c2ccc(-c3ccc(O)cc3)cc2)c1,25.6,20.9,29.6,32.6,,33,27.7,27.3,34.7,,20.9
CC(=O)N1CC[N+](C)(CCCCN2c3ccccc3Sc3cc(N=[N+]=[N-])ccc32)CC1,> 100,> 100,> 100,> 100,> 100,> 100,> 100,> 100,> 100,,
NC1=NN(c2ccccc2)C2(c3ccncc3C(=O)O)C1C(N)=NN2c1ccccc1 (centres undefined),> 100,> 100,> 100,> 100,,> 100,,> 100,> 100,,> 100
COc1ccc(-c2oc3cc(OC)c(OC)c(OC)c3c(=O)c2OC)cc1OC,> 100,> 100,> 100,> 100,,> 100,> 100,> 100,> 100,,> 100
CN(C)CCCNC(=O)c1cc(NC(=O)c2cc(NC(=O)[C@H]3C[C@@H]3C(=O)Nc3cc(C(=O)Nc4cc(C(=O)NCCCN(C)C)n(C)c4)n(C)c3)cn2C)cn1C,,,,> 100,> 100,> 100,> 100,> 100,,,7.96
COP(=O)(OC)C(O)/C=C(\Cl)c1ccc(Cl)cc1 (centres undefined),43.3,> 100,> 100,> 100,59.1,,> 100,> 100,,,45.3
Cc1nn(-c2ccccc2)c2c1C(c1cc3ccccc3nc1Cl)NC(=S)N2 (centres undefined),> 100,71.8,> 100,> 100,> 100,,> 100,> 100,> 100,,96.6
c1cc2cc(c1)CN1CCNCCN(CCNCC1)Cc1cccc(c1)CN1CCNCCN(CCNCC1)C2,> 100,,> 100,,> 100,> 100,> 100,> 100,> 100,,
CCN(CC)c1nc(N(C)C)c2ccc(OC)cc2n1,,34.7,52.5,55.2,31.4,26.9,76.7,59.6,,,> 100
Cc1cc(C)nc(NS(=O)(=O)c2ccc(NNC(=O)c3cccc4c(NNc5ccc(S(=O)(=O)Nc6nc(C)cc(C)n6)cc5)c5ccccc5nc34)cc2)n1,66.5,48.7,87.1,55.9,53.1,37.7,85.9,33.3,,,70.3
c1ccc(/N=N\Nc2ccc(-c3nc4ccccc4o3)cc2)nc1,> 100,,> 100,,> 100,55.4,> 100,> 100,> 100,,> 100
c1ccc(SC(Sc2ccccc2)c2ccc3c(c2)OCO3)cc1,> 100,> 100,,> 100,> 100,,> 100,> 100,> 100,,> 100

SMILES,TGI [1] [µM],TGI [2] [µM],TGI [3] [µM],TGI [4] [µM],TGI [5] [µM],TGI [6] [µM],TGI [7] [µM],TGI [8] [µM],TGI [9] [µM],GI50 [1] [µM],TGI [10] [µM]
COC1=CC(=O)c2c(O)ccc(O)c2C1=O,5.03,31.3,33,43.8,,9.33,10.9,34.4,31.6,,33
Cc1cc(N(CCC#N)CCC#N)ccc1/C(N=Nc1ccccc1)=N\NC(=O)c1ccccc1,> 100,> 100,> 100,> 100,71.6,> 100,> 100,41.3,93.7,,
CC1C2(C)OC(=N)C(C#N)(C(c3ccco3)O2)C1(C#N)C#N (centres undefined),47.9,51.4,> 100,> 100,,55.5,,> 100,> 100,,47.3
COc1cc(CNC(=O)[C@H](Cc2ccc(O)cn2)NC(C)=O)cc(OC)c1,> 100,> 100,> 100,> 100,,> 100,> 100,> 100,> 100,,75.5
C[C@@H]1OC(=O)C[C@H]2CC(=O)N(CCC3CN(S(=O)(=O)C(F)(F)F)c4ccc(Cc5ccc6c(c5)C(CCN5C[C@H]7[C@@H](CC(=O)O[C@H]7C)CC5=O)CN6S(=O)(=O)C(F)(F)F)cc43)C[C@@H]21 (some centres undefined),> 100,> 100,> 100,> 100,,> 100,> 100,> 100,> 100,,> 100
NC(CCCNc1cccc(O)c1)C(=O)O (centres undefined),> 100,> 100,> 100,> 100,> 100,,> 100,> 100,> 100,,> 100
CC(C)c1ccc2c(c1)C=C1OC(=O)[C@]3(C)CCC[C@@]2(C)C13 (some centres undefined),> 100,> 100,> 100,> 100,> 100,> 100,> 100,> 100,,,
NC(N)=NS(=O)(=O)c1ccc(Nc2c3ccccc3nc3c(C(=O)NC(CO)(CO)CO)cccc23)cc1,> 100,,> 100,,> 100,> 100,87.4,40.8,72.6,,48.9
CC(=O)N1C(C(=O)NNc2ccccc2)CSC1c1ccccc1 (centres undefined),> 100,,> 100,> 100,> 100,> 100,> 100,> 100,> 100,,> 100
O=c1c2ccccc2c2c1c1c3ccccc3c(=O)c1c1c3ccccc3c(=O)c21,> 100,,> 100,> 100,> 100,> 100,> 100,> 100,> 100,,
O/N=C1/CCCCCC1NO (centres undefined),> 100,> 100,> 100,> 100,,> 100,> 100,> 100,,,> 100
O=C(N/N=C/C=C/c1ccc([N+](=O)[O-])o1)c1ccc(Br)s1,41.7,30.9,> 100,47.3,,,> 100,38.7,> 100,,25.7
CC(=O)Nc1ccc(S(=O)(=O)[N-]C2C(=O)c3ccccc3C(=O)C2[n+]2ccccc2)cc1 (centres undefined),32.3,30.4,> 100,> 100,42.1,43.6,35.3,30.7,,,33.6
O=C1OC2c3ccccc3C(=O)C2(c2ccccc2)N1c1ccccc1 (centres undefined),> 200,> 200,> 200,> 200,,> 200,> 200,> 200,> 200,,> 200
COc1cc(S(=O)(=O)Nc2ccc(-c3csc(N4C(=O)C(C)SC4c4ccccc4O)n3)cc2)ccc1Cl (centres undefined),> 100,,> 100,> 100,> 100,,> 100,> 100,> 100,,> 100
C=CCOC(=O)CCCCCCCCCCCCCCCOC(=O)c1c(CCC[C@@H](C)O[Si](C)(C)C(C)(C)C)nc(=O)n2c1CC[C@H]2CC1(CC/C=C\[C@H](CC)O[Si](C(C)C)(C(C)C)C(C)C)OCCO1,> 100,,> 100,> 100,,> 100,> 100,> 100,> 100,,41.9
CC(=O)[O-].CC(=O)[O-].O=C(N/N=C/c1cc(Cl)cc(Cl)c1[OH2+])c1ccncc1.[Zn+2],94.8,> 100,> 100,> 100,> 100,> 100,> 100,> 100,> 100,,
Cn1c(=O)c2c(ncn2CCSS(=O)(=O)O)n(C)c1=O,> 100,> 100,> 100,> 100,,,> 100,> 100,> 100,,> 100
CCCC(=O)/C=C/S/C=C/C(=O)CCC,18.7,21.4,> 100,17.9,,,42.6,6.92,,,
O=C1c2ccccc2C(=O)C2C3c4ccccc4C(c4ccccc43)C12 (centres undefined),45.8,22.7,> 100,> 100,30.5,88.8,> 100,> 100,,,
O=C(Nc1ccccc1)Nn1c(-c2cccs2)nc2ccc(I)cc2c1=O,31.8,> 100,71.2,> 100,47.9,55.3,> 100,> 100,,,59.7
COc1cc(-c2c3c([nH]c(=O)c2C#N)-c2cc([N+](=O)[O-])ccc2CCC3)cc(OC)c1OC,46.3,82.8,66.4,89,,46.1,92.2,70.6,66.9,,> 100
CC(C)CCNC(=O)c1ccc(CNC(=O)/C=C/c2csc(-c3ccccc3)n2)cc1,> 100,73.6,> 100,> 100,,> 100,37.4,> 100,> 100,,> 100
